Data on two compounds can be found in EP0251194A1, “Use of carbocyclic and heterocyclic condensed dihydropyridines for the preparation of cardioprotective remedies and heterocyclic and carbocyclic condensed dihydropyridines and methods and intermediates for their preparation” (BOEHRINGER INGELHEIM KG, priority 1986, dated 1988).

The structures appear in SMILES notation.

Assay [1] has as its system myocardiale Radio-Calciumaufnahme. The assay is described as follows: Inhibition of isoprenaline-induced myocardial radio-calcium uptake in conscious rats (method of Arndts). As to conditions: peroral administration, dose that inhibits by 50 % the myocardial radio-calcium uptake caused by 30 mg/kg s.c. isoprenaline. The class given is in vivo, Ratten. The text has this:
Bekanntlich ist der myocardiale Ca⁺² -Gehalt ein Maß für die hypoxische bzw. die durch toxische Catecholamindosen hervorgerufene Herzschädigung (Higgins et al., Mol. Cell. Cardiol. 10: 427 - 438, 1984; Nakanishi et al., Am. J. Physiol. 242: 437 - 449, 1982; Fleckenstein, A., Vorträge der Erlanger Physiol. Tagung 1970, Ed. Keidel, Springer Verlag Berlin, Heidelberg, New York, 1971). Umgekehrt ist die Inhibition der hypoxischen oder Isoprenalin-bedingten mycardialen Calciumaufnahme ein Maß für die cardioprotektive Effektivität von Calciumantagonisten (Fleckenstein s.o.), von Calmodulininhibitoren (Higgins) und anderen Pharmaka, z.B. Betaadrenolytika (Arndts, Arzneimittelforschung 25: 1279 - 1284, 1975).
Die cardioprotektive Wirkung wurde an wachen Ratten nach subcutaner oder peroraler Wirkstoffgabe anhand der von Arndts (s.o.) beschriebenen Methode festgestellt, und die Wirkungsstärke der Testsubtanzen als H₅₀-Wert angegeben; dieser Wert entspricht der Dosis, die die durch eine Gabe von 30 (mg/kg; s.c.) Isoprenalin bedingte myocardiale Radio-Calciumaufnahme zu 50 % hemmt.

Assay [2] deals with Isoliertes Rattenherz. The assay is described as follows: Isolated Langendorff heart, oxygen deficiency by reduced perfusion flow, time to onset of regular contractions. More on the design: species or system Ratten. Conditions: isolated rat heart; infusion of test substance during the O2 deficiency state (60 min, flow reduced 100-fold). Here is the method:
Die Untersuchungen am isolierten Langendorff-Herzen wurden nach O. Langendorff, Pflügers Arch. 61, 291 (1895) mit kleinen Abwandlungen ausgeführt:
Isoliertes Rattenherz, retrograde Perfusion über die Aorta. Elektrische Stimulation (300 Impulse/min, Impulsdauer 1msec). Messung des linksventrikulär entwickelten Druckes mit flüssigkeitsgefülltem Latex-Ballon. Nach 20 min Aequilibrierung Auslösen eines Sauerstoff-Mangelzustandes mit 100-fach vermindertem Fluß durch Drosselung des Perfusionsflusses für 60 min, Rückkehr zu normalem Fluß bewirkt starken Anstieg der Grundspannung, unter Kontrollbedingungen setzt die Herztätigkeit nach 6 - 7 min unregelmäßig wieder ein, nach 15 - 18 min rascher Übergang zu regelmäßigen Kontraktionen. Cardioprotektiv wirksame Verbindungen verkürzen die Zeit bis zum Einsetzen regelmäßiger Kontraktionen. Infusion der Testsubstanz (gelöst in unbegastem Perfusionsmedium) während des O₂-Mangelzustandes herznah in das Perfusionssystem.
Die getesteten Verbindungen ergaben bei Anwendung in der unten angegebenen Konzentration eine signifikante Reduktion der Zeit bis zum Einsetzen regelmäßiger Kontraktionen.

Regarding `COc1cc2c(cc1OC)C(=C(C(=O)NCCN1CCOCC1)c1ccccc1)NCC2` [Verbindung A], the H50-Wert in assay [1] is given as 0.73.

Regarding `CCCCNC(=O)C(C1=NCCc2cc(OC)c(OC)cc21)c1ccccc1` (stereo not drawn) [Verbindung B], the H50-Wert in assay [1] was 0.50. For the same compound, the “Konzentration (signifikante Reduktion der Zeit bis zum Einsetzen regelmäßiger Kontraktionen)” value in assay [2] was 13,3 ug/ml.
